Assay results from patent US5332733A, “Heterocyclically substituted piperazinoakylbenzoxazine and piperazinoalkylbenzothiazine compounds, processes for preparing them, and medicaments containing them” (Kali-Chemie Pharma GmbH, priority 1990, dated 1994).
Like-named read-outs stand apart in the source and are kept apart here.

How the values were obtained:
mice = conditions: mouse, in vivo, 1440 min
Method: 2. Determination of Minimum Toxic Dose
Maximum doses of 300 mg/kg of the test substance were administered orally to male mice weighing 20-25 g. The animals were observed carefully for 3 hours for toxicity symptoms. In addition, all symptoms and deaths were recorded over a period of 24 hours after administration. Associated symptoms were also observed and recorded. If death or severe toxic symptoms were observed, additional mice were administered increasingly lower doses. The lowest dose which produced death or severe toxic symptoms is given in the following Table B as the minimum toxic dose.

histamine-(H1)-receptor = target: T1, histamine-(H1)-receptor (Cavia porcellus, UniProt P31389); assay: Histamine-(H1)-receptor antagonism in vitro, histamine-induced contractions of isolated ileum; type: cell-based, guinea pig (Dunkin Hartley); conditions: test substance 10^-6 mole/l, histamine 5 × 10^-6 mole/l
T1 construct: Segments of the ileum 1.5 cm long from Dunkin Hartley guinea pigs; from tissue; host or cells: isolated ileum of Dunkin Hartley guinea pigs
Method: 3. Investigation of Anti-Histamine-(H1) Effect Based on Histamine-(H1)-Receptor Antagonism In Vitro
To investigate the histamine-(H1)-receptor antagonism of the test substances, the inhibiting effect of the substances on histamine-induced contractions of the smooth muscle was determined in vitro on the isolated organ. Isolated strips of organ from the ileum are suitable for this purpose. In an organ bath of physiological saline solution the smooth muscle strips react to the addition of histamine by contracting. […] The extent of regression of the contraction is an indication of the anti-histamine-(H1) activity of the compounds. The investigation was carried out analogously to the method originally described by Magnus (Pfluegers Arch. 102, 123 (1904)).
Procedure for determining the smooth muscle contraction inhibiting effect on isolated guinea pig ileum induced by a 5×10^-6 molar histamine concentration
Segments of the ileum 1.5 cm long from Dunkin Hartley guinea pigs having a body weight of 300 500 g were used for the test. Each strip was placed in an organ bath of 10 ml of physiological saline solution according to Krebs-Henseleit and attached to a conventional apparatus for isotonic measurement of changes in length of the ileum strips (automated Celaster measuring apparatus), so that the tissue was under 1 g of tension. The bath was kept at a pH of 7.4 and gassed with a mixture of 5% CO2 and 95% O2. After an equilibration phase, an isotonic contraction of the tissue was induced by adding histamine in a final concentration of 5×10^-6 mole/liter and washing it out again after a contact time of 30 seconds. Only tissues samples from which three reproducible contractions were obtained at 10 minute intervals were used in the subsequent test. The test substances were then added in a final concentration of 10^-6 mole/liter, and after 30 seconds contact time histamine was again added up to a concentration of 5×10^-6 mole/liter. The resulting contractions were measured over 30 seconds. The tissue was then washed several times over a period of 10 minutes. Histamine was then added again to stimulate a contraction. The resulting contractions were again measured over 30 seconds. The difference between the amplitude of the contraction obtained by histamine addition alone and the amplitude of the contraction obtained in the presence of the test substance was determined and expressed in terms of % inhibition.
The inhibiting effects on the contractions induced by histamine 30 seconds after administration of the test substance and on the contractions induced by the addition of histamine 10 minutes later are listed in the table.

[1] = 0.5 min, after 30 seconds, read-out: % inhibition of histamine-induced ileum contractions after 30 seconds
[2] = 10 min, after 10 minutes (after washing), read-out: % inhibition of histamine-induced ileum contractions after 10 minutes

T1 sequence (P31389 whole entry): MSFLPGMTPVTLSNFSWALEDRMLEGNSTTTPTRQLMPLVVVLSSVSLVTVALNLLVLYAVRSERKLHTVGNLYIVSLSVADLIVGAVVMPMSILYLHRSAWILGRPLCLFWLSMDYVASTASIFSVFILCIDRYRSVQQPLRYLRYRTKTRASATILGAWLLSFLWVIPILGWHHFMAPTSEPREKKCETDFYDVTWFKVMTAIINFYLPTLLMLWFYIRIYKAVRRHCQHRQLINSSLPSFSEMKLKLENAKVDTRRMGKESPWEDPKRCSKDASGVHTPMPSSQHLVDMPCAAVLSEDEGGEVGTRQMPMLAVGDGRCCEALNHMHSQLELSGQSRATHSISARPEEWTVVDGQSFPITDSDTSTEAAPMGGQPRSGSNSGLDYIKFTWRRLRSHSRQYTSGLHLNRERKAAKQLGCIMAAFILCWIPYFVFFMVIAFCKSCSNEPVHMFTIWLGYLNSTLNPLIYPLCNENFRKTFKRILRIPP

SMILES	Minimum toxic dose (mice)	inhibition at 1 µM (histamine-(H1)-receptor; [1])	inhibition at 1 µM (histamine-(H1)-receptor; [2])
Cc1ccnc(N2CCN(CCCCC3Sc4ccccc4NC3=O)CC2)c1 (stereo not shown) [Example 1, 2-{4-[4-(4-methylpyridin-2-yl)-piperazin-1-yl]butyl}-2H-1,4-benzothiazine-3(4H)-one]	300 mg/kg	–	–
Cc1ccnc(N2CCN(CCCCC3Oc4ccccc4NC3=O)CC2)c1 (stereo not shown) [Example 7]	–	85%	74%
Cc1ccnc(N2CCN(CCCC3Sc4ccccc4NC3=O)CC2)c1 (stereo not shown) [Example 8]	100 mg/kg	42%	5%
Cc1ccnc(N2CCN(CCCC3Oc4ccccc4NC3=O)CC2)c1 (stereo not shown) [Example 9]	300 mg/kg	–	–
Cc1ccnc(N2CCN(CCCC3Sc4ccccc4NC3=S)CC2)c1 (stereo not shown) [Example 11]	> 300 mg/kg	32%	35%
